Measurements: ChEMBL document CHEMBL5625171, “Design, synthesis, and biological studies of novel sulfonamide derivatives as farnesoid X receptor agonists” (Eur J Med Chem, 2023)

Key:
Bile acid receptor = biological target: T1, Bile acid receptor (Homo sapiens, UniProt Q96RI1); test: Agonist activity at FXR LBD (unknown origin) using fluorescein-SRC2-2 as substrate incubated for 3 hrs by TR-FRET assay
T1 sequence (Q96RI1 whole entry): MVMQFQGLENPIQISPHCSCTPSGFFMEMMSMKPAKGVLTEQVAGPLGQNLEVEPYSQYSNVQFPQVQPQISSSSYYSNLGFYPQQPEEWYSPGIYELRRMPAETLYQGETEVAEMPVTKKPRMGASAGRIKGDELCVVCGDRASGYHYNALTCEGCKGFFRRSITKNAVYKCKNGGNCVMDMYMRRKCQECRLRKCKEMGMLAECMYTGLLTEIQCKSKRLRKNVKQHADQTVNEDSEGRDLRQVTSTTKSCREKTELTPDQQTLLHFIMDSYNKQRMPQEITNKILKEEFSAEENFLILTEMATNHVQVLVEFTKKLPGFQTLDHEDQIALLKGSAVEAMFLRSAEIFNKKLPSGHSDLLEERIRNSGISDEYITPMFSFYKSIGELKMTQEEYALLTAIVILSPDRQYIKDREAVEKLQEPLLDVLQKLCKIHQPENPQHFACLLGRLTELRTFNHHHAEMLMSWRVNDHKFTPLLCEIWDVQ

[1] = Sub-acute toxicity in ICR mouse assessed as anomaly in kidney at 500 mg/kg, po qd treated for 10 days; type: organism-based; conditions: in vivo, 240 h, time 10 day
[2] = Sub-acute toxicity in ICR mouse assessed as animal death at 500 mg/kg, po qd treated for 10 days; type: organism-based; conditions: in vivo, 240 h, time 10 day
[3] = Sub-acute toxicity in ICR mouse assessed as abnormal behaviour at 500 mg/kg, po qd treated for 10 days; type: organism-based; conditions: in vivo, 240 h, time 10 day
[4] = Sub-acute toxicity in ICR mouse assessed as change in serum TBIL level at 500 mg/kg, po qd treated for 10 days; type: organism-based; conditions: in vivo, 240 h, time 10 day
[5] = Sub-acute toxicity in ICR mouse assessed as anomaly in liver at 500 mg/kg, po qd treated for 10 days; type: organism-based; conditions: in vivo, 240 h, time 10 day
[6] = Sub-acute toxicity in ICR mouse assessed as anomaly in heart at 500 mg/kg, po qd treated for 10 days; type: organism-based; conditions: in vivo, 240 h, time 10 day
[7] = Sub-acute toxicity in ICR mouse assessed as change in serum creatinine level at 500 mg/kg, po qd treated for 10 days; type: organism-based; conditions: in vivo, 240 h, time 10 day
[8] = Sub-acute toxicity in ICR mouse assessed as change in serum TG level at 500 mg/kg, po qd treated for 10 days; type: organism-based; conditions: in vivo, 240 h, time 10 day
[9] = Sub-acute toxicity in ICR mouse assessed as change in serum urea level at 500 mg/kg, po qd treated for 10 days; type: organism-based; conditions: in vivo, 240 h, time 10 day
[10] = Sub-acute toxicity in ICR mouse assessed as change in serum ALP level at 500 mg/kg, po qd treated for 10 days; type: organism-based; conditions: in vivo, 240 h, time 10 day
[11] = Sub-acute toxicity in ICR mouse assessed as anomaly in spleen at 500 mg/kg, po qd treated for 10 days; type: organism-based; conditions: in vivo, 240 h, time 10 day
[12] = Sub-acute toxicity in ICR mouse assessed as change in serum DBIL level at 500 mg/kg, po qd treated for 10 days; type: organism-based; conditions: in vivo, 240 h, time 10 day
[13] = Sub-acute toxicity in ICR mouse assessed as anomaly in lung at 500 mg/kg, po qd treated for 10 days; type: organism-based; conditions: in vivo, 240 h, time 10 day
[14] = Sub-acute toxicity in ICR mouse assessed as change in serum ALT level at 500 mg/kg, po qd treated for 10 days; type: organism-based; conditions: in vivo, 240 h, time 10 day
[15] = Sub-acute toxicity in ICR mouse assessed as change in serum TC level at 500 mg/kg, po qd treated for 10 days; type: organism-based; conditions: in vivo, 240 h, time 10 day
[16] = Sub-acute toxicity in ICR mouse assessed as change in serum AST level at 500 mg/kg, po qd treated for 10 days; type: organism-based; conditions: in vivo, 240 h, time 10 day

For `CC#CC(CC(=O)O)c1ccc(OCc2ccc(N(CC(C)C)S(=O)(=O)c3c(Cl)cccc3Cl)cc2)cc1` (stereo not given), the EC50 (Bile acid receptor) was greater than 10 µM.

With `CC(C)CN(c1ccc(-c2cccc(C3(C(=O)O)CC3)c2)cc1)S(=O)(=O)c1c(Cl)cccc1Cl` the EC50 (Bile acid receptor) was greater than 10 µM.

In the case of `CC(C)CN(c1ccc(-c2ccc(C(=O)O)cc2)cc1)S(=O)(=O)c1c(Cl)cccc1Cl`, the EC50 (Bile acid receptor) is reported as 3.5 µM.

Compound `CC(C)CN(c1ccc(-c2ccc(OC(C)C(=O)O)c(F)c2)cc1)S(=O)(=O)c1c(Cl)cccc1Cl` (stereo not given) has an EC50 (Bile acid receptor) of 8.7 µM.

Compound `CC(C)CN(c1ccc(-c2ccc(C(=O)NC3CC3)cc2)cc1)S(=O)(=O)c1c(Cl)cccc1Cl` has an EC50 (Bile acid receptor) greater than 10 µM.

Compound `CC(C)CN(c1ccc(-c2ccc(CCC(=O)O)cc2)cc1)S(=O)(=O)c1c(Cl)cccc1Cl` has an EC50 (Bile acid receptor) of 6.5 µM.

Work on `CC(C)CN(c1ccc(-c2ccc(OC(C)(C)C(=O)O)c(F)c2)cc1)S(=O)(=O)c1c(Cl)cccc1Cl` yielded an EC50 (Bile acid receptor) greater than 10 µM.

For `CC(C)CN(c1ccc(-c2ccc(OCC(=O)O)c(F)c2)cc1)S(=O)(=O)C1CCCCC1`, the EC50 (Bile acid receptor) was greater than 10 µM.

Compound `CC(C)CN(c1ccc(-c2ccc(OCC(=O)O)cc2)cc1)S(=O)(=O)c1c(Cl)cccc1Cl` has an EC50 (Bile acid receptor) of 0.89 µM.

In the case of `CC(C)CN(c1ccc(-c2cccc(C(=O)O)c2)cc1)S(=O)(=O)c1c(Cl)cccc1Cl`, the EC50 (Bile acid receptor) is reported as greater than 10 µM.

With `CC(C)CN(c1ccc(-c2ccc(OCC(=O)O)c(F)c2)cc1)S(=O)(=O)c1c(Cl)cccc1Cl` the Activity [1] was “Non-Toxic”, the Activity [2] was “Non-Toxic” and the Activity [3] was “Non-Toxic”. The Activity [4] was “Non-Toxic”, the Activity [5] was “Non-Toxic” and the Activity [6] was “Non-Toxic”. The Activity [7] was “Non-Toxic”, the Activity [8] was “Non-Toxic” and the Activity [9] was “Non-Toxic”. The Activity [10] was “Non-Toxic”, the Activity [11] was “Non-Toxic” and the Activity [12] was “Non-Toxic”. For the same compound, the Activity [13] was “Non-Toxic”, the Activity [14] was “Non-Toxic” and the Activity [15] was “Non-Toxic”. The Activity [16] was “Non-Toxic”.

`Cc1ccc(S(=O)(=O)N(CC(C)C)c2ccc(-c3ccc(OCC(=O)O)c(F)c3)cc2)cc1` gave an EC50 (Bile acid receptor) greater than 10 µM.

Work on `Cc1ccc(S(=O)(=O)N(CC(C)C)c2ccc(-c3ccc(CCC(=O)O)cc3)cc2)cc1` yielded an EC50 (Bile acid receptor) greater than 10 µM.

`CC(C)CN(c1ccc(COc2cccc(CC(=O)O)c2)cc1)S(=O)(=O)c1c(Cl)cccc1Cl` showed an EC50 (Bile acid receptor) greater than 10 µM.

For `CC(C)CN(c1ccc(-c2cccc(CC(=O)O)c2)cc1)S(=O)(=O)c1c(Cl)cccc1Cl`, the EC50 (Bile acid receptor) was greater than 10 µM.

In the case of `O=C(O)c1cccc(-c2ccc(N(CC3CC3)S(=O)(=O)c3c(Cl)cccc3Cl)cc2)c1`, the EC50 (Bile acid receptor) is reported as greater than 10 µM.

Work on `CC(C)CN(c1ccc(-c2ccc(C3(C(=O)O)CC3)cc2)cc1)S(=O)(=O)c1c(Cl)cccc1Cl` yielded an EC50 (Bile acid receptor) greater than 10 µM.

Compound `CC(C)CN(c1ccc(-c2ccc(C(N)=O)cc2)cc1)S(=O)(=O)c1c(Cl)cccc1Cl` has an EC50 (Bile acid receptor) greater than 10 µM.

`CC(C)CN(c1ccc(COc2ccc3c(CC(=O)O)coc3c2)cc1)S(=O)(=O)c1c(Cl)cccc1Cl` showed an EC50 (Bile acid receptor) greater than 10 µM.

`Cc1ccc(S(=O)(=O)N(CC(C)C)c2ccc(-c3ccc(C(=O)O)cc3)cc2)cc1` showed an EC50 (Bile acid receptor) greater than 10 µM.
